# Data reported in the supplement of paper PMC3974653.
# Structures can show the parent of a compound that is named as a salt.
# Tested on: MTT (mouse pheochromocytoma)
# Test: IC50 of cell viability (ATP content)
# Conditions: (24 or 48 h)
# Method in brief: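 CellTiter-Glo ATP luminescence, read after 15 minutes, was used to assess MTT mouse pheochromocytoma cells treated for 24 or 48 hrs with library compounds (final 0.5 nM to 46 µM, 8 concentrations). The cells had been plated at 5 µl of 200,000 cells/ml per well in white 1536-well plates in DMEM with 5% FBS and 1% horse serum and cultured overnight at 37°C, 5% CO2. Normalisation set positive-control wells to 100% and DMSO wells to 0%. The IC50 was then determined by four-parameter logistic fitting.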
row,Compound,IC50 of cell viability [µM]
1,COc1ccc([S+](=O)([O-])N2c3ccc(Cl)cc3[C@](O)(c3ccccc3Cl)[C@@H]2C(=O)N2CCC[C@H]2C(N)=O)cc1OC [RELCOVAPTANUM],> 46
2,CCN1CCC[C@H]1CNC(=O)c1c(OC)ccc(Br)c1OC [REMOXIPRIDE],> 46
3,CC(C)Cc1ccc([C@@H](C)C(=O)NS(C)(=O)=O)cc1.NCCCC[C@H](N)C(=O)O [REPARIXIN],> 46
4,CC(=O)Oc1cccc(O)c1 [RESORCINOL MONOACETATE],> 46
5,NC(=O)c1ncn(C2OC(CO)C(O)C2O)n1 (configuration not stated) [RIBAVIRIN],> 46
6,COC1/C=C/O[C@@]2(C)Oc3c(C)c(O)c4c(O)c(c(C=NN5CCN(C)CC5)c(O)c4c3C2=O)NC(=O)C(C)=C/C=C/C(C)C(O)[C@@H](C)C(O)C(C)[C@H](OC(C)=O)C1C (some centres not stated) [RIFAMPIN],> 46
7,CO[C@H]1/C=C/O[C@@]2(C)Oc3c(C)c(O)c4c(O)c(c(/C=N\N5CCN(C6CCCC6)CC5)c(O)c4c3C2=O)NC(=O)C(C)=C/C=C/[C@H](C)[C@H](O)[C@@H](C)[C@@H](O)[C@@H](C)[C@H](OC(C)=O)[C@@H]1C [RIFAPENTINE],> 46
8,C1C\N=C(\NC(C2CC2)C3CC3)O1 [RILMENIDINE],> 46
9,CC/1=C(\CCN2CCC(CC2)C3=NOC4=C3C=CC(=C4)F)C(=O)N/5CCCCC5=N1 [RISPERIDONE],> 46
10,CCN(C)C(=O)Oc1cccc([C@H](C)N(C)C)c1 [RIVASTIGMINE TARTRATE],> 46
11,CN(C)CCc1c[nH]c2ccc(Cn3cncn3)cc12 [RIZATRIPTAN],> 46
12,N=C(N/N=C/c1ccc(Cl)cc1)N/N=C/c1ccc(Cl)cc1 [ROBENIDINE HYDROCHLORIDE],> 46
13,C=CC[N+]1([C@H]2C[C@H]3[C@@H]4CC[C@H]5C[C@H](O)[C@@H](N6CCOCC6)C[C@]5(C)[C@H]4CC[C@]3(C)[C@H]2OC(C)=O)CCCC1 [ROCURONIUM BROMIDE],> 46
14,C[S+]([O-])(=O)C1=CC=C(C=C1)C/2=C(/C(=O)OC2)C3=CC=CC=C3 [ROFECOXIB],> 46
15,O=C1CC[C@H](C(=O)N[C@@H]2C[C@H]2c2ccccc2)N1 [ROLICYPRINUM],> 46
16,Cn1c([N+](=O)[O-])cnc1COC(N)=O [RONIDAZOLE],> 46
17,CCCN(CCC)CCc1cccc2c1CC(=O)N2 [ROPINROLE],> 46
18,CCCN1CCCC[C@H]1C(=O)Nc1c(C)cccc1C [ROPIVACAINE HYDROCHLORIDE MONOHYDRATE],> 46
19,CCC1OC(=O)C[C@@H](O)[C@H](C)[C@@H](OC2OC(C)CC(N(C)C)C2O)[C@@H](CC=O)C[C@@H](C)C(=O)/C=C/[C@]2(C)OC2C1C (some centres not stated) [ROSAMICIN],> 46
20,CN(CCOc1ccc(CC2SC(=O)NC2=O)cc1)c1ccccn1 (configuration not stated) [ROSIGLITAZONE],> 46
21,CC(C)c1nc(N(C)[S+](C)(=O)[O-])nc(-c2ccc(F)cc2)c1/C=C/C(O)CC(O)CC(=O)O (configuration not stated) [ROSUVASTATIN],> 46
22,CCCN(CCc1cccs1)[C@H]1CCc2c(O)cccc2C1 [ROTIGOTINE],> 46
23,CC(=O)OCC(=O)NCCCOc1cccc(CN2CCCCC2)c1 [ROXATIDINE ACETATE HYDROCHLORIDE],> 46
24,NC(=O)c1cn(Cc2c(F)cccc2F)nn1 [RUFINAMIDE],> 46
25,CN1CCN(CC1)C2=C(F)C=C3C(=O)\C(=C/N4CCSC2=C34)C(O)=O [RUFLOXACINUM],> 46
26,CC(=O)SC[C@@H](Cc1ccccc1)C(=O)NCC(=O)OCc1ccccc1 [Racecadotril],> 46
27,O=C(Nc1ccc(Oc2ccc(Cl)cc2)c(Cl)c1)c1cc(I)cc(I)c1O [Rafoxanide],> 46
